Laboratory results: patent US20100151572A1, “ANTI-TUMORAL COMPOSITIONS METHODS” (priority 2005, published 2010)

Legend:
[1] = F-Ade plasma levels after prodrug injection in tumor-bearing mice; type: in vivo
Procedure: Measurements of generation and clearance of circulating F-Ade are made by HPLC for example. Radiolabeled prodrug is obtained from Moravek Biochemicals and injected into mice by the same route and dosage used in efficacy experiments for comparison. Plasma samples are removed at increasing time intervals after injection of prodrug and analyzed by reverse-phase HPLC for parent compound and base. Identification of prodrug and F-Ade is by HPLC as described above.
When tumors are approximately 200 mg the mice are injected intraperitoneally with 20 mg/kg 3H-F-dAdo. […] Four mice from each group are sacrificed 5, 15, 30, and 60 minutes after injection of F-dAdo, and plasma samples were obtained. The amount of F-Ade is determined in each plasma sample using reverse phase HPLC, as described.
A similar experiment is conducted with F-araAMP. […] The limit of detection in these experiments with fludarabine is approximately 1 micromolar.

[2] = Maximally tolerated dose of prodrug in mice; type: in vivo; details: for MTD in mice bearing tumors that express E. coli PNP: versus mice without PNP tumors
Procedure: For experiments shown in FIG. 7, sixteen mice are implanted subcutaneously with D54 parental, no PNP expression cells, D54/PNP MuLv, approximately 250 PNP units), or D54/lentiPNP, […] PNP units tumor cells as described for efficacy evaluations. When tumors are approximately 200 mg the mice are injected intraperitoneally with 20 mg/kg 3H-F-dAdo. This dose of F-dAdo is the maximally tolerated dose of F-dAdo when given 5 times daily for 3 consecutive days. Four mice from each group are sacrificed 5, 15, 30, and 60 minutes after injection of F-dAdo, and plasma samples were obtained. The amount of F-Ade is determined in each plasma sample using reverse phase HPLC, as described.
There is no difference in the F-Ade plasma levels in mice bearing tumors with different levels of E. coli PNP activity, which is consistent with the fact that the MTD of F-dAdo is not reduced in mice bearing tumors that express E. coli PNP.
A similar experiment is conducted with F-araAMP. […] The limit of detection in these experiments with fludarabine is approximately 1 micromolar. As with F-dAdo, the MTD of F-araAMP is not reduced in mice bearing tumors that express E. coli PNP (either from lentivirus or MuLv), or when given in combination with vectors that express E. coli PNP.

[3] = Systemic dose response tolerability in mice, human dose by Freireich formula; type: in vivo
Excerpt: The formula of Freireich et al., Cancer Chemother. Rep., 50:219 244, (1966) can be used to determine the maximum tolerated dose of substrate for a human subject. […] This amount or slightly less should be tolerated in humans with minimal side effects. Furthermore, it is understood that modes of administration that permit the substrate to remain localized at or near the site of the tumor will be effective at lower doses than systemically administered substrates.

[4] = test system: D54 tumors (no PNP expression); assay: Control D54 tumors without PNP expression, drug treatment in vivo
[5] = cited from earlier work
[6] = Safety analysis in flank and CNS tumor models with PNP/F-araAMP; type: in vivo
D54 human glioma tumors = assay: Ad-PNP injection of D54 tumors followed by F-araAMP; type: in vivo
Procedure: D54 human glioma tumors (appx. 250 mg) are injected with an Ad-PNP (2×10^9 PFU, open circles) or saline (closed circles). PNP activity in tumor extracts taken two days after vector administration is approximately 5000 PNP units.

[7] = test system: D54 glioma tumors (MuLv-PNP transduced); assay: D54 tumors expressing E. coli PNP from MuLV, prodrug treatment in vivo
Procedure: For example, in one in vivo tumor model, tumors are established in animals by subcutaneous implantation of about 10^7 cells into the axillary region of 6-10 mice. Athymic (or scid) mice are used for models of certain human tumors including cells such as D54, HCT-15, and SR475 head/neck. Syngeneic models are also used. For instance, mouse tumors are established using Colon 26 and G26 glioma cells.
The resulting solid tumors are measured twice weekly in two dimensions and the mass calculated using the formula for a prolate ellipsoid, [length (mm)×width^2 (mm)]/2=mg, assuming unit density. The data will permit the determination of a tumor volume doubling time, % “no takes”, and % spontaneous regressions.
PNP expression in MuLv was driven by an SV40 promoter. Mice are given non-absorbable antibiotics in their drinking water prior to treatment with high doses of MeP-dR (e.g. 168 mg/kg/d×3d) to minimize intestinal cleavage of the compound (Bharara, S., et al., 2005, Human Gene Therapy 16:339-347.). Antibiotics are not co:administered for lower doses of MeP-dR, or with less avid substrates such as fludarabine.

[8] = test system: D54 glioma tumors (lentivirus PNP); assay: D54 tumors expressing E. coli PNP from lentivirus, prodrug treatment in vivo; set-up: species or system human
Excerpt: Syngeneic models are also used.
D54 glioma tumors are established from a stable cell line expressing E. coli PNP by a strong, CMV-based promoter in a lentiviral vector. FIG. 10 illustrates results. Open Circles: Tumors established from 10% PNP expressing/90% non-expressing tumor cells; PNP activity 9600±1300 units on day 14. Open Triangles: 5% expressing, 95% non-expressing tumor cells; PNP activity 5500±1700 units. Open Squares: Tumors established from 2.5% expressing, 97.5% non-expressing (PNP activity 3600±530 units). Closed symbols depict growth of corresponding (10%, 5%, 2.5%) PNP tumors treated with vehicle (saline control). At least six animals are studied per group. Identically treated animals from each study arm are sacrificed just prior to initiation of MeP-dR therapy (day 14) to measure intratumoral PNP acitivity. […] These experiments test the influence of substantially higher PNP activities on bystander killing in vivo. PNP activity in 300 mg tumors comprised of 100% lentivirus transduced cells is found to be approximately 126,000 PNP units (one unit=1 nmole MeP-dR converted per mg tumor tissue per hour). When the level of E. coli PNP is studied using lentiviral expression, improvements in bystander killing are observed as shown in FIG. 10.
FIG. 12 depicts a study in which 100% of cells express E. coli PNP using lentivirus. Complete regression and cures of tumors (12 of 12) are obtained with F-araAMP following a 3 day treatment schedule. […] Adjusting the schedule of F-araAMP may also improve bystander killing in vivo (FIG. 16).
Tumors in which 100% of cells expressed E. coli PNP are treated with a maximally tolerated dose (MTD, 100 mg/kg schedule, open circles) or half the MTD (closed triangles). Six animals are included per treatment group. […] PNP activity in these tumors is 126,000±16,000 units on the day of drug therapy.
Tumors are established from an inoculum in which 10% of cells expressed E. coli PNP. PNP expression on the day of drug treatment is 14,200±681 PNP units. Anti-tumor efficacy is greater at 100 mg/kg F-araAMP (open circles) than at 50 mg/kg (closed triangles) or 25 mg/kg (open triangles) given over a standard 3 day schedule (q2h×5, q1d×3 days).
D54 glioma tumors are established with decreasing proportions of PNP expressing cells (and increasing non-expressing (parental) cells). (open symbols: F-araAMP therapy; closed symbols: no prodrug therapy; circles: 2.5%; triangles 5%, and squares 10% PNP transduced cells). F-araAMP was 100 mg/kg q2h×5, q1d×3.
Tumors comprised of 5% PNP expressing cells and 2 different fludarabine schedules are shown.

human glioma tumors = assay: HSV-PNP intratumoral inoculation of human glioma tumors in mice; type: in vivo; details: intratumoral MeP-dR 168 mg/kg daily x 3 days with HSV-PNP
Procedure: Using HSV-PNP, a composition including 17 million pfu of the virus in 50 microliters is administered on day 16 following establishment of human glioma tumors in mice. HSV-PNP by itself slows growth of tumors following intratumoral inoculation, approximately 20 days delay to one tumor doubling.

HeLa cells = assay: Ad-PNP mediated cell killing in vitro, crystal violet staining; type: cell-based, human; details: MeP-dR 40 micrograms/milliliter, adenoviral MOI 0.1-100, stained 6 days post infection
Procedure: Confluent HeLa cells are infected with Ad-PNP at various MOIs. MeP-dR is added at 40 micrograms/milliliter in one set of cells at 24 hours post infection. At 6 days post infection, all cultures are stained with Crystal Violet to visualize living cells.
FIG. 17 depicts results using an Ela deleted adenoviral vector encoding E. coli PNP as described herein.

[9] = test system: Nc1nc(F)nc2c1ncn2[C@@H]1O[C@H](CO)[C@@H](O)[C@@H]1O; assay: purified protein, by the assay type; details: other: substrate of E. coli PNP
[10] = test system: Nc1nc(F)nc2c1ncn2[C@H]1C[C@H](O)[C@@H](CO)O1; assay: purified protein, by the assay type; type: biochemical; details: other: substrate of E. coli PNP
Excerpt: (§1) Table 1 describes the kinetic constants underlying these enzymatic reactions with E. coli PNP.

[11] = test system: Cc1ncnc2c1ncn2[C@H]1C[C@H](O)[C@@H](CO)O1; assay: purified protein, by the assay type; type: biochemical; details: other: substrate of E. coli PNP
Excerpt: as §1

## Nc1nc(F)nc2c1ncn2[C@H]1C[C@H](O)[C@@H](CO)O1 [2-F-dAdo, 2-fluoro-2′-deoxyadenosine]
[1]; 20 mg/kg 3H-F-dAdo ip, 5, 15, 30, 60 min, D54 parental, D54/PNP MuLv, D54/lentiPNP tumors
  F-Ade plasma levels in mice bearing tumors with different levels of E. coli PNP activity: no difference
[2]; mouse, in vivo, 3 days
  maximally tolerated dose: 20 mg/kg
[2]
  MTD in mice bearing tumors that express E. coli PNP: not reduced

## Cc1ncnc2c1ncn2[C@@H]1O[C@H]([C@H](C)O)[C@@H](O)[C@H]1O [5′-methyl(talo)MeP-R]
[3]; 200 mg/kg times 3, from mouse data
  human dosage determined by formula of Freireich: 600 mg/m^2
[3]; mice, systemic, 200 mg per kg per day for 3 days (3 doses total)
  tolerability: well tolerated

## O=NN(CCCl)C(=O)NCCCl [BCNU]
[4]; at maximally tolerated doses
  activity against D54 tumors: minimal activity

## Nc1nc(F)nc2c1ncn2[C@@H]1O[C@H](CO)[C@@H](O)[C@@H]1O [F-araA, 9-(beta-D-arabinofuranosyl)-2-fluoroadenine]
[5]; in vivo
  circulating half life: 50 min
  peak levels compared with MeP-dR: significantly higher

## Nc1nc(F)nc2c1ncn2[C@@H]1O[C@H](COP(=O)(O)O)[C@@H](O)[C@@H]1O [F-araAMP]
[5]; 4 hours after injection of F-araAMP
  prodrug in plasma: very little prodrug in plasma
[1]; 100 mg/kg F-araAMP, limit of detection approximately 1 micromolar
  F-Ade in plasma of mice bearing tumors expressing E. coli PNP: no F-Ade is detected
[2]; given 5 times daily for 3 consecutive days, mice
  maximally tolerated dose: 100 mg/kg
[2]
  MTD in mice bearing tumors that express E. coli PNP: not reduced
[6]
  animal longevity: improved animal longevity
  toxicity as judged by weight loss or lethality: have not indicated significant toxicity
D54 human glioma tumors; Ad-PNP 2x10^9 PFU, tumors appx. 250 mg, p<0.002 vs virus alone or no treatment
  anti-tumor effect together with Ad-PNP: slowing of tumor growth
D54 human glioma tumors; Ad-PNP together with F-araAMP
  toxicity in the study: No limiting weight loss, animal deaths or other toxicities
[7]; 100% of cells expressed E. coli PNP (MuLv), tumors subsequently escape
  duration of regressions: ~30 days
[7]; F-araAMP following E. coli PNP transduction with MuLv
  bystander killing in vivo: little or no bystander killing
[4]; no PNP expression, GFP control transgene, standard 3 day schedule
  effect on control D54 tumors: no effect
[8]; 2.5%, 5%, 10% PNP transduced cells, 100 mg/kg q2h x5, q1d x3, p<0.001
  anti-tumor effect vs non-treatment groups: significantly different from non-treatment groups
[8]; 5% PNP expressing cells, 2 different schedules, p<0.001
  anti-tumor effect vs non-treatment group: significantly different from non-treatment group
[8]; 10% PNP cells, 100, 50 or 25 mg/kg q2h x5, q1d x3 days, p<0.001, efficacy greater at 100 mg/kg
  anti-tumor effect vs non-treatment group: significantly different from non-treatment group
[8]; 100% PNP tumors, F-araAMP MTD or half MTD
  tolerability during tumor regressions: without excessive weight loss or other undesired sequelae
[8]; 100% of cells express PNP, F-araAMP 3 day schedule, MTD (100 mg/kg) or half the MTD, six animals per group
  complete regression and cures of tumors: 12 of 12 and cured of their tumors
[8]; as few as 2.5% of tumor cells express PNP
  anti-tumor effects at low proportion of PNP cells: Anti-tumor effects are observed

## Cc1ncnc2c1ncn2[C@H]1C[C@H](O)[C@@H](CO)O1 [MeP-dR, 9-(2-deoxy-beta-D-ribofuranosyl]-6-methylpurine]
[5]; in vivo
  circulating half life: ~20 min
  half life in serum: 15 to 20 min
Human glioma tumors
  anti-tumor effect with HSV-PNP: improves tumor regressions and arrest of tumor growth
[7]; 20% PNP-expressing / 80% parental cells, MeP-dR, p<0.002
  anti-tumor effect vs non-treatment groups: significantly different from non-treatment groups
[7]; MeP-dR, 20% PNP (MuLv) and parental tumors
  tolerability of treatments: well tolerated without limiting weight loss or lethality
[8]; MeP-dR, 10%, 5%, 2.5% PNP expressing cells, p<0.05 (2.5%), p<0.005 (5% and 10%)
  antitumor effects vs non-treatment groups: significantly different from non-treatment groups
HeLa cells
  cell killing in combination with Ad-PNP: sufficient to eliminate populations of cancer cells

## Ad-PNP
D54 human glioma tumors; two days after vector administration, 2x10^9 PFU
  PNP activity in tumor extracts: approximately 5000 PNP units

## E. coli PNP (Escherichia coli K-12)
[9]
  Km: 960 µM
  Vmax: 0.0983 µmol/min/mg
[10]
  Km: 22 µM
  Vmax: 7.08 µmol/min/mg
[11]
  Km: 125 µM
  Vmax: 24.3 µmol/min/mg
